For the first series the following is noted: bacteroides fragilis, 12 h, 2 µM.
Description: The drug is tested on Bacteroides fragilis strain: DS-208 for biotransformation. The drug concentrations were measured before and after a 12-h incubation by liquid-chromatography-coupled mass spectrometry (LC–MS)
For `Cc1nc(Nc2ncc(C(=O)Nc3c(C)cccc3Cl)s2)cc(N2CCN(CCO)CC2)n1.O` [DASATINIB], the “Bacterial Biotransformation” value is “Compound metabolized”.
In the case of `CCC(C)n1ncn(-c2ccc(N3CCN(c4ccc(OCC5COC(Cn6cncn6)(c6ccc(Cl)cc6Cl)O5)cc4)CC3)cc2)c1=O` (stereo not drawn) [ITRACONAZOLE], the “Bacterial Biotransformation” value was “Compound NOT metabolized”.
On the same count and under the same terms, with `CC1Cc2ccccc2N1NC(=O)c1ccc(Cl)c(S(N)(=O)=O)c1` (stereo not drawn) [INDAPAMIDE] the entry was “Compound NOT metabolized”; with `COC1=C(OC)C(=O)C(CCCCCCCCCCO)=C(C)C1=O` [IDEBENONE], “Compound metabolized”; with `CN1CCN(C2=Nc3ccccc3Oc3ccc(Cl)cc32)CC1.O=C(O)CCC(=O)O` [LOXAPINE SUCCINATE], “Compound NOT metabolized”.
The same measure, in the same setting: next, `OCCN1CCN(CCCN2c3ccccc3Sc3ccc(C(F)(F)F)cc32)CC1` [FLUPHENAZINE]: “Compound metabolized”; `COc1ccc2cc([C@H](C)C(=O)O)ccc2c1` [NAPROXEN]: “Compound NOT metabolized”.

Another series is described as follows: The drug is tested on Bacteroides fragilis strain: T(B)9 for biotransformation. The drug concentrations were measured before and after a 12-h incubation by liquid-chromatography-coupled mass spectrometry (LC–MS). As to conditions: 2 µM.
With `CN1[C@@H]2CC[C@H]1C[C@@H](OC(=O)C(CO)c1ccccc1)C2` (stereo partly drawn) [ATROPINE], the “Bacterial Biotransformation” value is “Compound NOT metabolized”.
On to `COc1ccc2cc([C@H](C)C(=O)O)ccc2c1` [NAPROXEN], for which the “Bacterial Biotransformation” value is reported as “Compound NOT metabolized”.

The conditions of the next series: clostridioides difficile, 12 h, 2 µM.
Description: The drug is tested on Clostridium difficile strain: 120 for biotransformation. The drug concentrations were measured before and after a 12-h incubation by liquid-chromatography-coupled mass spectrometry (LC–MS)
Take `CC1Cc2ccccc2N1NC(=O)c1ccc(Cl)c(S(N)(=O)=O)c1` (stereo not drawn) [INDAPAMIDE]: the “Bacterial Biotransformation” value is given as “Compound NOT metabolized”.
Consider `COc1ccc2cc([C@H](C)C(=O)O)ccc2c1` [NAPROXEN], for which the “Bacterial Biotransformation” value is “Compound NOT metabolized”.

The conditions of a further series: bacteroides thetaiotaomicron, 12 h, 2 µM.
Description: The drug is tested on Bacteroides thetaiotaomicron strain: 7330 for biotransformation. The drug concentrations were measured before and after a 12-h incubation by liquid-chromatography-coupled mass spectrometry (LC–MS)
On to `CN1[C@@H]2CC[C@H]1C[C@@H](OC(=O)C(CO)c1ccccc1)C2` (stereo partly drawn) [ATROPINE], for which the “Bacterial Biotransformation” value is reported as “Compound NOT metabolized”.
Still for that read-out and setting: next, `Cc1nc(Nc2ncc(C(=O)Nc3c(C)cccc3Cl)s2)cc(N2CCN(CCO)CC2)n1.O` [DASATINIB]: “Compound NOT metabolized”; `CCC(C)n1ncn(-c2ccc(N3CCN(c4ccc(OCC5COC(Cn6cncn6)(c6ccc(Cl)cc6Cl)O5)cc4)CC3)cc2)c1=O` (stereo not drawn) [ITRACONAZOLE]: “Compound NOT metabolized”.
Turning to `CC1Cc2ccccc2N1NC(=O)c1ccc(Cl)c(S(N)(=O)=O)c1` (stereo not drawn) [INDAPAMIDE], the “Bacterial Biotransformation” value was “Compound NOT metabolized”.
Take `COC1=C(OC)C(=O)C(CCCCCCCCCCO)=C(C)C1=O` [IDEBENONE]: the “Bacterial Biotransformation” value was “Compound NOT metabolized”.
On the same count and under the same terms, with `CN1CCN(C2=Nc3ccccc3Oc3ccc(Cl)cc32)CC1.O=C(O)CCC(=O)O` [LOXAPINE SUCCINATE] the entry was “Compound NOT metabolized”; with `OCCN1CCN(CCCN2c3ccccc3Sc3ccc(C(F)(F)F)cc32)CC1` [FLUPHENAZINE], “Compound metabolized”; with `COc1ccc2cc([C@H](C)C(=O)O)ccc2c1` [NAPROXEN], “Compound NOT metabolized”.

The next series can be described thus: The drug is tested on Eggerthella lenta strain: ATCC25559 for biotransformation. The drug concentrations were measured before and after a 12-h incubation by liquid-chromatography-coupled mass spectrometry (LC–MS). The settings on record: 2 µM.
Take `CN1[C@@H]2CC[C@H]1C[C@@H](OC(=O)C(CO)c1ccccc1)C2` (stereo partly drawn) [ATROPINE]: the “Bacterial Biotransformation” value is listed as “Compound NOT metabolized”.
On the same count and under the same terms, next, `Cc1nc(Nc2ncc(C(=O)Nc3c(C)cccc3Cl)s2)cc(N2CCN(CCO)CC2)n1.O` [DASATINIB]: “Compound NOT metabolized”.
The same measure, in the same setting: with `CCC(C)n1ncn(-c2ccc(N3CCN(c4ccc(OCC5COC(Cn6cncn6)(c6ccc(Cl)cc6Cl)O5)cc4)CC3)cc2)c1=O` (stereo not drawn) [ITRACONAZOLE] the entry was “Compound NOT metabolized”; with `COC1=C(OC)C(=O)C(CCCCCCCCCCO)=C(C)C1=O` [IDEBENONE], “Compound NOT metabolized”; with `CN1CCN(C2=Nc3ccccc3Oc3ccc(Cl)cc32)CC1.O=C(O)CCC(=O)O` [LOXAPINE SUCCINATE], “Compound NOT metabolized”.
The same measure, in the same setting: with `OCCN1CCN(CCCN2c3ccccc3Sc3ccc(C(F)(F)F)cc32)CC1` [FLUPHENAZINE] the entry was “Compound NOT metabolized”.
Consider `COc1ccc2cc([C@H](C)C(=O)O)ccc2c1` [NAPROXEN], for which the “Bacterial Biotransformation” value was “Compound NOT metabolized”.

A short description of the next series: The drug is tested on Anaerococcus hydrogenalis strain: DSM7454 for biotransformation. The drug concentrations were measured before and after a 12-h incubation by liquid-chromatography-coupled mass spectrometry (LC–MS). The settings on record: 2 µM.
For `CN1[C@@H]2CC[C@H]1C[C@@H](OC(=O)C(CO)c1ccccc1)C2` (stereo partly drawn) [ATROPINE], the “Bacterial Biotransformation” value is on record as “Compound NOT metabolized”.
The same measure, in the same setting: with `Cc1nc(Nc2ncc(C(=O)Nc3c(C)cccc3Cl)s2)cc(N2CCN(CCO)CC2)n1.O` [DASATINIB] the entry was “Compound NOT metabolized”; with `CCC(C)n1ncn(-c2ccc(N3CCN(c4ccc(OCC5COC(Cn6cncn6)(c6ccc(Cl)cc6Cl)O5)cc4)CC3)cc2)c1=O` (stereo not drawn) [ITRACONAZOLE], “Compound NOT metabolized”; with `CC1Cc2ccccc2N1NC(=O)c1ccc(Cl)c(S(N)(=O)=O)c1` (stereo not drawn) [INDAPAMIDE], “Compound NOT metabolized”.
The same measure, in the same setting: next, `COC1=C(OC)C(=O)C(CCCCCCCCCCO)=C(C)C1=O` [IDEBENONE]: “Compound NOT metabolized”; `CN1CCN(C2=Nc3ccccc3Oc3ccc(Cl)cc32)CC1.O=C(O)CCC(=O)O` [LOXAPINE SUCCINATE]: “Compound NOT metabolized”.
With `OCCN1CCN(CCCN2c3ccccc3Sc3ccc(C(F)(F)F)cc32)CC1` [FLUPHENAZINE], the “Bacterial Biotransformation” value is given as “Compound NOT metabolized”.
Same read-out and setting: next, `COc1ccc2cc([C@H](C)C(=O)O)ccc2c1` [NAPROXEN]: “Compound NOT metabolized”.

A short description of the next series: The drug is tested on Providencia alcalifaciens strain: DSM30120 for biotransformation. The drug concentrations were measured before and after a 12-h incubation by liquid-chromatography-coupled mass spectrometry (LC–MS). As to conditions: 2 µM.
Turning to `CN1[C@@H]2CC[C@H]1C[C@@H](OC(=O)C(CO)c1ccccc1)C2` (stereo partly drawn) [ATROPINE], the “Bacterial Biotransformation” value is recorded as “Compound NOT metabolized”.
The same measure, in the same setting: with `COc1ccc2cc([C@H](C)C(=O)O)ccc2c1` [NAPROXEN] the entry was “Compound NOT metabolized”.

For a further series the following is noted: victivallis vadensis, 12 h, 2 µM.
Description: The drug is tested on Victivallis vadensis strain: ATCC BAA-548 for biotransformation. The drug concentrations were measured before and after a 12-h incubation by liquid-chromatography-coupled mass spectrometry (LC–MS)
Regarding `Cc1nc(Nc2ncc(C(=O)Nc3c(C)cccc3Cl)s2)cc(N2CCN(CCO)CC2)n1.O` [DASATINIB], the “Bacterial Biotransformation” value is recorded as “Compound NOT metabolized”.
In the case of `CCC(C)n1ncn(-c2ccc(N3CCN(c4ccc(OCC5COC(Cn6cncn6)(c6ccc(Cl)cc6Cl)O5)cc4)CC3)cc2)c1=O` (stereo not drawn) [ITRACONAZOLE], the “Bacterial Biotransformation” value is “Compound NOT metabolized”.
The same measure, in the same setting: next, `CC1Cc2ccccc2N1NC(=O)c1ccc(Cl)c(S(N)(=O)=O)c1` (stereo not drawn) [INDAPAMIDE]: “Compound NOT metabolized”; `COC1=C(OC)C(=O)C(CCCCCCCCCCO)=C(C)C1=O` [IDEBENONE]: “Compound NOT metabolized”; `CN1CCN(C2=Nc3ccccc3Oc3ccc(Cl)cc32)CC1.O=C(O)CCC(=O)O` [LOXAPINE SUCCINATE]: “Compound NOT metabolized”.
Same read-out and setting: next, `OCCN1CCN(CCCN2c3ccccc3Sc3ccc(C(F)(F)F)cc32)CC1` [FLUPHENAZINE]: “Compound NOT metabolized”.
The same measure, in the same setting: with `COc1ccc2cc([C@H](C)C(=O)O)ccc2c1` [NAPROXEN] the entry was “Compound NOT metabolized”.

For another series the following is noted: bacteroides eggerthii, 12 h, 2 µM.
Description: The drug is tested on Bacteroides eggerthii strain: DSM20697 for biotransformation. The drug concentrations were measured before and after a 12-h incubation by liquid-chromatography-coupled mass spectrometry (LC–MS)
Take `CN1[C@@H]2CC[C@H]1C[C@@H](OC(=O)C(CO)c1ccccc1)C2` (stereo partly drawn) [ATROPINE]: the “Bacterial Biotransformation” value is recorded as “Compound NOT metabolized”.
Still for that read-out and setting: with `Cc1nc(Nc2ncc(C(=O)Nc3c(C)cccc3Cl)s2)cc(N2CCN(CCO)CC2)n1.O` [DASATINIB] the entry was “Compound NOT metabolized”.
The same measure, in the same setting: next, `CCC(C)n1ncn(-c2ccc(N3CCN(c4ccc(OCC5COC(Cn6cncn6)(c6ccc(Cl)cc6Cl)O5)cc4)CC3)cc2)c1=O` (stereo not drawn) [ITRACONAZOLE]: “Compound NOT metabolized”.
The same measure, in the same setting: next, `CC1Cc2ccccc2N1NC(=O)c1ccc(Cl)c(S(N)(=O)=O)c1` (stereo not drawn) [INDAPAMIDE]: “Compound NOT metabolized”; `COC1=C(OC)C(=O)C(CCCCCCCCCCO)=C(C)C1=O` [IDEBENONE]: “Compound NOT metabolized”; `CN1CCN(C2=Nc3ccccc3Oc3ccc(Cl)cc32)CC1.O=C(O)CCC(=O)O` [LOXAPINE SUCCINATE]: “Compound NOT metabolized”.
In the case of `OCCN1CCN(CCCN2c3ccccc3Sc3ccc(C(F)(F)F)cc32)CC1` [FLUPHENAZINE], the “Bacterial Biotransformation” value is given as “Compound NOT metabolized”.
Turning to `COc1ccc2cc([C@H](C)C(=O)O)ccc2c1` [NAPROXEN], the “Bacterial Biotransformation” value is listed as “Compound NOT metabolized”.

A short description of the next series: The drug is tested on Clostridium spiroforme strain: DSM1552 for biotransformation. The drug concentrations were measured before and after a 12-h incubation by liquid-chromatography-coupled mass spectrometry (LC–MS). As to conditions: thomasclavelia spiroformis, 2 µM.
With `CC1Cc2ccccc2N1NC(=O)c1ccc(Cl)c(S(N)(=O)=O)c1` (stereo not drawn) [INDAPAMIDE], the “Bacterial Biotransformation” value is on record as “Compound NOT metabolized”.
On the same count and under the same terms, next, `COc1ccc2cc([C@H](C)C(=O)O)ccc2c1` [NAPROXEN]: “Compound NOT metabolized”.

A further series can be described thus: The drug is tested on Clostridium hathewayi strain: DSM13479 for biotransformation. The drug concentrations were measured before and after a 12-h incubation by liquid-chromatography-coupled mass spectrometry (LC–MS). The settings on record: hungatella hathewayi, 2 µM.
`CC1Cc2ccccc2N1NC(=O)c1ccc(Cl)c(S(N)(=O)=O)c1` (stereo not drawn) [INDAPAMIDE]: the “Bacterial Biotransformation” value is given as “Compound NOT metabolized”.
Same read-out and setting: with `COc1ccc2cc([C@H](C)C(=O)O)ccc2c1` [NAPROXEN] the entry was “Compound NOT metabolized”.

Another series in a line: The drug is tested on Bacteroides uniformis strain: ATCC8492 for biotransformation. The drug concentrations were measured before and after a 12-h incubation by liquid-chromatography-coupled mass spectrometry (LC–MS). The settings on record: 2 µM.
`CN1[C@@H]2CC[C@H]1C[C@@H](OC(=O)C(CO)c1ccccc1)C2` (stereo partly drawn) [ATROPINE]: the “Bacterial Biotransformation” value is reported as “Compound NOT metabolized”.
Regarding `Cc1nc(Nc2ncc(C(=O)Nc3c(C)cccc3Cl)s2)cc(N2CCN(CCO)CC2)n1.O` [DASATINIB], the “Bacterial Biotransformation” value is recorded as “Compound NOT metabolized”.
On the same count and under the same terms, with `CCC(C)n1ncn(-c2ccc(N3CCN(c4ccc(OCC5COC(Cn6cncn6)(c6ccc(Cl)cc6Cl)O5)cc4)CC3)cc2)c1=O` (stereo not drawn) [ITRACONAZOLE] the entry was “Compound NOT metabolized”; with `CC1Cc2ccccc2N1NC(=O)c1ccc(Cl)c(S(N)(=O)=O)c1` (stereo not drawn) [INDAPAMIDE], “Compound NOT metabolized”; with `COC1=C(OC)C(=O)C(CCCCCCCCCCO)=C(C)C1=O` [IDEBENONE], “Compound metabolized”.
On the same count and under the same terms, with `CN1CCN(C2=Nc3ccccc3Oc3ccc(Cl)cc32)CC1.O=C(O)CCC(=O)O` [LOXAPINE SUCCINATE] the entry was “Compound NOT metabolized”; with `OCCN1CCN(CCCN2c3ccccc3Sc3ccc(C(F)(F)F)cc32)CC1` [FLUPHENAZINE], “Compound metabolized”; with `COc1ccc2cc([C@H](C)C(=O)O)ccc2c1` [NAPROXEN], “Compound NOT metabolized”.

(Values after ChEMBL document CHEMBL5303573, “Mapping human microbiome drug metabolism by gut bacteria and their genes” (Nature, 2019).)
